According to US8506984B2, “Therapeutic agent elution control process” (Cordis Corporation, priority 2006, dated 2013):

Legend:
[1] = test system: human coronary artery smooth muscle cells; assay: Proliferation of synchronized cultured human coronary artery smooth muscle cells stimulated with two percent fetal bovine serum; format: cell-based; details: for effect of added agent on anti-proliferative rapamycin dose response: added to rapamycin-treated cells
Description: (§1) The multiple curves represent various concentrations of topotecan ranging from zero to three hundred nanomolar concentrations.
(§2) The multiple curves represent various concentrations of etoposide ranging from zero to eight hundred nanomolar concentrations.
The multiple curves represent various concentrations of Panzem® ranging from zero to 100 micromolar concentrations.

[2] = test system: human coronary artery smooth muscle cell; assay: MTS cytotoxicity assay; format: cell-based; details: concentrations up to 30,000.00 nanomolar
Description: Typically, a control is utilized to determine baseline toxicity.

[3] = Porcine drug elution PK study of dual drug eluting stent; format: in vivo; details: after eight (8) days of implantation; single-layer sirolimus/cilostazol coating (FIG. 83), 100 μg BMA overcoat
Description: Another critical parameter for the performance of the thrombus resistance of a device coated with cilostazol is the duration of the drug release from the coating. This is of particular significance in the two weeks after device implantation. In the porcine drug elution PK studies of the dual drug eluting coating, both cilostazol and sirolius were slowly released from the coating, resulting in a sustained drug release profile. The purpose of the porcine PK study is to assess the local pharmacokinetics of a drug eluting stent at a given implantation time. Normally three stents are implanted in three different coronary arteries in a pig for a given time point and then retrieved for total drug recovery analysis. The stents are retrieved at predetermined time points; namely, 1, 3 and 8 days. The stents are extracted and the total amount of drug remaining on the stents is determined by analysis utilizing HPLC (high performance liquid chromatography) for total drug amount. The difference between the original amount of drug on the stent and the amount of drug retrieved at a given time represents the amount of drug released in that period. The continuous release of drug into surrounding arterial tissue is what prevents the neointimal growth and restenosis in the coronary artery. A normal plot represents the percentage of total drug released (%, y-axis) vs. time of implantation (day, x-axis). […]

[4] = In vitro release from sirolimus/cilostazol single layer stent coating; format: physicochemical; details: single-layer sirolimus/cilostazol coating (FIG. 83)
[5] = test system: human coronary artery smooth muscle cells; assay: Proliferation of non-synchronized cultured human coronary artery smooth muscle cells stimulated with two percent fetal bovine serum; format: cell-based; details: for effect of added agent on anti-proliferative rapamycin dose response: added to rapamycin-treated cells
Description: The multiple curves represent various concentrations of mycophenolic acid ranging from zero to one thousand nanomolar concentrations. […] This potentiation observed in cultured coronary artery smooth muscle cells preferably translates to an enhancement in anti-restenotic efficacy following vascular injury and a reduction in the required amount of either agent to achieve the desired anti-restenotic effect.
FIG. 58 illustrates, in graphical format, the anti-proliferative activity of cladribine in non-synchronized cultured human coronary artery smooth muscle cells stimulated with two percent fetal bovine serum.
The multiple curves represent various concentrations of cladribine ranging from zero to nine hundred nanomolar concentrations. […] As illustrated, the percent inhibition increases substantially as the dose of cladribine increases.

[6] = test system: human coronary artery smooth muscle cell; assay: Human coronary artery smooth muscle cell proliferation, in vitro cell culture study (trichostatin A); format: cell-based
Description: FIG. 51 is a graph of the inhibition of coronary artery smooth muscle cells by trichostatin A in a cell culture study.

tumor cell lines = details: cited from earlier work
cell viability = assay: Cell viability assay; format: cell-based
Description: as §1, §2

[7] = Drug concentration in liquid formulations (liquid chromatography / HPLC); format: physicochemical; details: Vitamin E TPGS excipient, water and ethanol (<2%) co-solvents
Description: In accordance with exemplary embodiments of the present invention, a series of liquid formulations were developed for the local or regional delivery of water insoluble compounds such as sirolimus and its analogs, including CCI-779, ABT-578 and everolimus, through weeping balloons and catheter injection needles. […] These liquid formulations increase the apparent solubility of the pharmacologically active but water insoluble compounds by two to four orders of magnitude as compared to the solubility limits of the compounds in water. These liquid formulations rely on the use of a very small amount of organic solvents such as Ethanol (typically less than two percent) and a larger amount of safe amphiphilic (of or relating to a molecule having a polar, water soluble group attached to a non-polar, water insoluble […]) excipients such as polyethylene glycol (PEG 200, PEG 400) and vitamin E TPGS to enhance the solubility of the compounds. These liquid formulations of highly water insoluble compounds are stable and readily flowable at room temperature. Certain excipients, such as Vitamin E TPGS and BHT may be utilized to enhance the storage stability of sirolimus compounds through their anti-oxidation properties. […]

## COc1cc2c(cc1O)CC[C@@H]1[C@@H]2CC[C@]2(C)[C@@H](O)CC[C@@H]12 [Panzem®, 2-methoxyestradiol]
[1]
  effect of added agent on anti-proliferative rapamycin dose response: increases the percent of inhibition of rapamycin alone
[1]; two percent fetal bovine serum
  inhibition of human coronary artery smooth muscle cell proliferation in vitro: extremely effective inhibitor
[2]
  human coronary artery smooth muscle cell survival (MTS): do not reduce human coronary artery smooth muscle cell survival

## O=C1CCc2cc(OCCCCc3nnnn3C3CCCCC3)ccc2N1 [cilostazol, 6[4-(1-cyclohexyl-1H-tetrazol-5-yl)-butoxy]-3,4-dihydro-2-(1H)-quinolinone]
[3]
  drug remaining in the drug coating: ~80%
[4]
  in vitro release: ~35%

## COc1c(C)c2c(c(O)c1C/C=C(\C)CCC(=O)O)C(=O)OC2 [mycophenolic acid]
[5]
  effect of added agent on anti-proliferative rapamycin dose response: potentiates the anti-proliferative activity of rapamycin

## CC(/C=C/C(=O)NO)=C\[C@@H](C)C(=O)c1ccc(N(C)C)cc1 [trichostatin A]
[6]
  inhibition of human coronary artery smooth muscle cell proliferation: completely inhibit
[6]; read-out: anti-proliferative IC50
  IC50: ~6 nM
Tumor cell lines
  anti-proliferative IC50: low nM range

## CC[C@@]1(O)C(=O)OCc2c1cc1n(c2=O)Cc2cc3c(CN(C)C)c(O)ccc3nc2-1 [topotecan]
Cell viability; concentrations up to one micromolar
  cytotoxicity in cell viability assay: non-cytotoxic
[1]
  effect of added agent on anti-proliferative rapamycin dose response: potentiate the anti-proliferative activity of rapamycin

## Nc1nc(Cl)nc2c1ncn2[C@H]1C[C@H](O)[C@@H](CO)O1 [Cladribine, 2-chlorodeoxyadenosine]
[5]
  effect of added agent on anti-proliferative rapamycin dose response: potentiate the anti-proliferative activity of rapamycin
[5]; two percent fetal bovine serum
  inhibition of human coronary artery smooth muscle cell proliferation: completely inhibits

## COc1cc([C@@H]2c3cc4c(cc3[C@@H](O[C@@H]3O[C@@H]5CO[C@@H](C)O[C@H]5[C@H](O)[C@H]3O)[C@H]3COC(=O)[C@H]23)OCO4)cc(OC)c1O [etoposide]
Cell viability; concentrations up to ten micromolar
  cytotoxicity in cell viability assay: non-cytotoxic
[5]
  effect of added agent on anti-proliferative rapamycin dose response: potentiate the anti-proliferative activity of rapamycin

## CO[C@H]1C[C@@H]2CC[C@@H](C)[C@@](O)(O2)C(=O)C(=O)N2CCCC[C@H]2C(=O)O[C@H]([C@H](C)C[C@@H]2CC[C@@H](OC(=O)C(C)(CO)CO)[C@H](OC)C2)CC(=O)[C@H](C)/C=C(\C)[C@@H](O)[C@@H](OC)C(=O)[C@H](C)C[C@H](C)/C=C/C=C/C=C/1C [CCI-779]
[7]
  concentration in the final solution (HPLC assay): 15000 µg/mL

## CO[C@H]1C[C@@H]2CC[C@@H](C)[C@@](O)(O2)C(=O)C(=O)N2CCCC[C@H]2C(=O)O[C@H]([C@H](C)C[C@@H]2CC[C@@H](O)[C@H](OC)C2)CC(=O)[C@H](C)/C=C(\C)[C@@H](O)[C@@H](OC)C(=O)[C@H](C)C[C@H](C)/C=C/C=C/C=C/1C [Rapamycin, rapamycin]
[3]
  drug remaining in the drug coating: ~80%
